# Assay results from ChEMBL document CHEMBL1201862, “PubChem BioAssay data set” (2004).
# Activity calls are given as the source filed them.
# Legend:
# Fatty acid synthase [1] = molecular target: T1, Fatty acid synthase (Homo sapiens, UniProt P49327); test: inhibition of human FAS-TE enzyme activity – biochemical, endpoint fluorescence intensity, uHTS hits, dose response (AID 624327); format: functional;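 note: fluorescence from hydrolysis of an O-methyl fluorescein acyl ester substrate by the enzyme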
# [2] = viability of PTEN-deleted HCT116 cells – cell-based, HCT116 PTEN knockout, dose response (AID 1047); format: functional;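 note: HCT116 colon tumor cells with PTEN knocked out; cells exposed to compound for 60 hours before readout; potency for loss of cell viability measured by luminescence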
# [3] = reduction of Shn3 3'UTR-driven luciferase in osteoblasts – cell-based, Clone20 osteoblasts, firefly luciferase, cherry-picked, dose response (AID 624132); format: functional;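 note: firefly luciferase luminescence from reporter carrying the Shn3 3'UTR in osteoblasts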
# [4] = loss of viability in HepG2 cells – cell-based, CellTiter-Glo, cherry-picked, cytotoxicity control for Shn3 inhibitor project, dose response (AID 624134); format: functional
# [5] = molecular target: T2, High affinity choline transporter 1 (Homo sapiens, UniProt Q9GZV3); test: human choline transporter blockers, potency – cell-based, 5-point CRC, membrane potential dye, dose response (AID 504840); format: functional
# T2 sequence (Q9GZV3 whole entry): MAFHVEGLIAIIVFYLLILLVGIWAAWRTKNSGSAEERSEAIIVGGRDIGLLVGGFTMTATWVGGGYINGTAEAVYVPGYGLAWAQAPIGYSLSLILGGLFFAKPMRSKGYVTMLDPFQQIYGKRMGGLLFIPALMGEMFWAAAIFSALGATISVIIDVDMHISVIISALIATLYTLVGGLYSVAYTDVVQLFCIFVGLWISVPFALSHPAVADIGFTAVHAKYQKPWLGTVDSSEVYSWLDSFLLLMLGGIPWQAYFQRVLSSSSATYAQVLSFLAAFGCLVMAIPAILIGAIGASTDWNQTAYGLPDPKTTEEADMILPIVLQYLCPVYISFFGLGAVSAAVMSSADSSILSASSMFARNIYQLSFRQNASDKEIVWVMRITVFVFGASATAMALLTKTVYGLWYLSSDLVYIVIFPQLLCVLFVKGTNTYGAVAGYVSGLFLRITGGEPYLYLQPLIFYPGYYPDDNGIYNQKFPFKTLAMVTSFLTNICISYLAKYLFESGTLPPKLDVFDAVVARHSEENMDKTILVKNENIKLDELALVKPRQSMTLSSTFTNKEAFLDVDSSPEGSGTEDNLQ
# Fatty acid synthase [6] = molecular target: T1, Fatty acid synthase; test: inhibition of human FAS-TE enzyme activity – biochemical, kinetic fluorescence intensity, dose response (AID 624326); format: functional;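 note: rate of fluorescence rise from hydrolysis of a fluorogenic O-methyl fluorescein ester substrate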
# [7] = molecular target: T2, High affinity choline transporter 1; test: human choline transporter blockers, potency – cell-based, 10-point CRC, membrane potential dye, dose response (AID 588401); format: functional;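 note: membrane potential dye fluorescence of choline-evoked depolarization via CHT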
# [8] = viability of HCT116 lacking mutant beta-catenin – cell-based, human colon tumor, dose response (AID 1045); format: functional;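 note: HCT116 colon tumor cells with beta catenin knocked out; cells exposed to compound for 60 hours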
# [9] = non-specific 3'UTR reporter inhibition in Clone20-Shn3RL – cell-based, Renilla luciferase, cherry-picked, counter-screen for Shn3 inhibitor project, dose response (AID 624133); format: functional
# Protein Wnt-3a = Protein Wnt-3a (Mus musculus, UniProt P27467); test: antagonism of Wnt3a pathway luciferase reporter – Wnt-LIGHT cells, luminescence, selectivity assay for Gli-SUFU antagonist project, dose response (AID 651570); format: functional; settings: read-out: IC50_Mean;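 note: Wnt-LIGHT reporter cells stimulated with conditioned medium from Wnt3a-producing cells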
# [10] = mammalian cell viability loss – Alamar Blue, dry powder, cytotoxicity control for antifungal single agent project, dose response (AID 602188); format: functional, cell-based
# [11] = molecular target: T3, Apoptotic protease-activating factor 1 (Homo sapiens, UniProt O14727); test: SAR analysis of small molecule Activators of Apaf-1 in a Fluorescent assay.; format: functional; settings: read-out: EC50_Mean;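 note: caspase-3 cleavage of fluorogenic Rh110 DEVD substrate downstream of apoptosome activation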
# T3 sequence (O14727 whole entry): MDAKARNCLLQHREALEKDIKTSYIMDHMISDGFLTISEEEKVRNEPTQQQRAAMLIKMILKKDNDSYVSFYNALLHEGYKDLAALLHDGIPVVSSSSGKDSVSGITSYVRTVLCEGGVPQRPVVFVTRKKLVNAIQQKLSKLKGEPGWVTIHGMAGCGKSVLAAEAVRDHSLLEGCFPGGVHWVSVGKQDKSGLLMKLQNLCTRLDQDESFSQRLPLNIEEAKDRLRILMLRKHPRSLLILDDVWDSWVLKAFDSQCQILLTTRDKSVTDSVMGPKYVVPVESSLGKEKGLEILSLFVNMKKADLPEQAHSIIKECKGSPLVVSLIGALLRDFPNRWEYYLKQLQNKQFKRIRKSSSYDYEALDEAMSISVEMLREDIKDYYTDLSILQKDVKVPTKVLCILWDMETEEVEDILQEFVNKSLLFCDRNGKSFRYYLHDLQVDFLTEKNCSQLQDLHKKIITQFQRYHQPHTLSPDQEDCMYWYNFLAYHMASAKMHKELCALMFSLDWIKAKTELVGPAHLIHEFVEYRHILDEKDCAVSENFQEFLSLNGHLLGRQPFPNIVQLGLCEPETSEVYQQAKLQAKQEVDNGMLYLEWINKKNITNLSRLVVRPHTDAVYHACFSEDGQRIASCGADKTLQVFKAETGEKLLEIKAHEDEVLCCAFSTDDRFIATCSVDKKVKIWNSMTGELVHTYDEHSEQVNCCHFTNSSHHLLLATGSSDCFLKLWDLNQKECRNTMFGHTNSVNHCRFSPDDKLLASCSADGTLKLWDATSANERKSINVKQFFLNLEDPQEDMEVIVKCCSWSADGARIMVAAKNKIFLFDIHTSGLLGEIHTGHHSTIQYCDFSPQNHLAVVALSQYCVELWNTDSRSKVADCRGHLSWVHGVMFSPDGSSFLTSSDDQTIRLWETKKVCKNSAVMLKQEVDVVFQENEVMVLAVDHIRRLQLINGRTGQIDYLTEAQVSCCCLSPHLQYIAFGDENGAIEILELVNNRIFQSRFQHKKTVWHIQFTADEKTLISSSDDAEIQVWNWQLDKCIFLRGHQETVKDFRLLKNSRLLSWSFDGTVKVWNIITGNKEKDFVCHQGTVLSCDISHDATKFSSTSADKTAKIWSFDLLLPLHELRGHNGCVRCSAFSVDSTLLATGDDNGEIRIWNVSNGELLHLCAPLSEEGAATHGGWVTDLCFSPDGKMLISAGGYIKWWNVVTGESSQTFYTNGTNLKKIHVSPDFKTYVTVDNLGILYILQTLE
# [12] = molecular target: Hepatocyte nuclear factor 4-alpha (Homo sapiens, UniProt P41235); format: functional, cell-based;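 note: biochemical luminescence-based dose-response counterscreen measuring inhibition of HNF4 dimerization, run alongside a screen for blockers of ABHD5–perilipin-5 interaction; split luciferase complementation of HNF4 fusion proteins in cell lysate measuring dimerization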
# [13] = molecular target: T4, Rac GTPase-activating protein 1 (Homo sapiens, UniProt Q9H0H5); test: blockers of MgcRacGAP-driven Rac1 GTP hydrolysis – biochemical, ADP Hunter fluorescence, primary and confirmatory, confirmation (AID 624330); format: functional
# T4 sequence (Q9H0H5 whole entry): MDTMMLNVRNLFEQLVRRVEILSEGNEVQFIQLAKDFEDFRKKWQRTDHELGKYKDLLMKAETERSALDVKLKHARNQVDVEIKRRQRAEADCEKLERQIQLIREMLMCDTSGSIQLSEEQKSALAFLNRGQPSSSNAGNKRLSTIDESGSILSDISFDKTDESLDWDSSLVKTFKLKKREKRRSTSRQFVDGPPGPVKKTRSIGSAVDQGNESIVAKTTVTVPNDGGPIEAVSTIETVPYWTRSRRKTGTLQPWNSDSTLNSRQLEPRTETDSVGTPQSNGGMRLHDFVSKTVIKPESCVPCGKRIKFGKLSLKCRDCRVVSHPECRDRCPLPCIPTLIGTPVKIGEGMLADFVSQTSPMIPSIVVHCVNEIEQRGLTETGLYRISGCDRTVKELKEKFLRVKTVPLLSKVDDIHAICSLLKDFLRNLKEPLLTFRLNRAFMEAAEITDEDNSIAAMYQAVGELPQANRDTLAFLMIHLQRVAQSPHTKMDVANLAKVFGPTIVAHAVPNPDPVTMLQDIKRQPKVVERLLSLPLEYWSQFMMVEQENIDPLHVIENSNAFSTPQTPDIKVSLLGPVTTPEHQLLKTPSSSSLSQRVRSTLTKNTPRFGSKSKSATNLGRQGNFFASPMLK
# [14] = molecular target: T5, DNA repair protein RAD52 homolog (Homo sapiens, UniProt P43351); format: functional, biochemical
# T5 sequence (P43351 whole entry): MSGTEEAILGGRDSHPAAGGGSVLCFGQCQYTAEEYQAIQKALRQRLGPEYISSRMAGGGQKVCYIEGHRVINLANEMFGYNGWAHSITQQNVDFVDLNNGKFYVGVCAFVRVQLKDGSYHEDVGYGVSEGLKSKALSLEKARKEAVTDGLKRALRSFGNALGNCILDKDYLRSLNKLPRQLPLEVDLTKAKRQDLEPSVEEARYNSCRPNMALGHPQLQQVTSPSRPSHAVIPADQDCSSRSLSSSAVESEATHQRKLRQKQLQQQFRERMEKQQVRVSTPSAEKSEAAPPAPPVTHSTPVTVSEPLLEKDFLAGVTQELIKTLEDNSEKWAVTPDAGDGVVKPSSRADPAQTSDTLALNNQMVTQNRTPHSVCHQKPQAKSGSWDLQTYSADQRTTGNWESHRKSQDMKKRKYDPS
# [15] = rise of 2N DNA cells, HeLa – IC50, dose response (AID 1117349); format: functional, cell-based
# [16] = rise of 4N DNA cells, HeLa – IC50, dose response (AID 1117351); format: functional, cell-based
# [17] = molecular target: DNA repair and recombination protein RAD54-like (Homo sapiens, UniProt Q92698); test: RAD54 Holliday junction migration blockers – biochemical, fluorescence, cherry-picked samples, dose series, confirmation (AID 651657); format: functional
# Sequence of DNA repair and recombination protein RAD54-like (Q92698 whole entry): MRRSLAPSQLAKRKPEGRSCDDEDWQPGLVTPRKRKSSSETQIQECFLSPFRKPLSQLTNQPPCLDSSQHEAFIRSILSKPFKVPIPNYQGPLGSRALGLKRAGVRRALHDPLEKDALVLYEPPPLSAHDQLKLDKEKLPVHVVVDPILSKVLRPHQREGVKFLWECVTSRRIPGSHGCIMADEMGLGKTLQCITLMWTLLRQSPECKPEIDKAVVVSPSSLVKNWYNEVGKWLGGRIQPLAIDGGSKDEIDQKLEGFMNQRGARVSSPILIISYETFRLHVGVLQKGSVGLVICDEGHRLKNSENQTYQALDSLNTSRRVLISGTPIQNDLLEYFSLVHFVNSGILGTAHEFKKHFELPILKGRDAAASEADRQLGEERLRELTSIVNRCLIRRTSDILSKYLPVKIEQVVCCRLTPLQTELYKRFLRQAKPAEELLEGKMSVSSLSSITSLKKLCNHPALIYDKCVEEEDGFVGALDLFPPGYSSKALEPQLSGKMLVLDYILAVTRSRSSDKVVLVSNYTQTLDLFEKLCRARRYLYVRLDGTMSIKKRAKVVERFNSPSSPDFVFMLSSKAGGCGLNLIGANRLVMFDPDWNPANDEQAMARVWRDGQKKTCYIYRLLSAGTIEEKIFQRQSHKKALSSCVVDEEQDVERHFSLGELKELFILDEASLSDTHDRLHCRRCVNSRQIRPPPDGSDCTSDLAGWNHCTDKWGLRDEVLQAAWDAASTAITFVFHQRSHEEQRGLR
# T1 sequence (P49327 whole entry): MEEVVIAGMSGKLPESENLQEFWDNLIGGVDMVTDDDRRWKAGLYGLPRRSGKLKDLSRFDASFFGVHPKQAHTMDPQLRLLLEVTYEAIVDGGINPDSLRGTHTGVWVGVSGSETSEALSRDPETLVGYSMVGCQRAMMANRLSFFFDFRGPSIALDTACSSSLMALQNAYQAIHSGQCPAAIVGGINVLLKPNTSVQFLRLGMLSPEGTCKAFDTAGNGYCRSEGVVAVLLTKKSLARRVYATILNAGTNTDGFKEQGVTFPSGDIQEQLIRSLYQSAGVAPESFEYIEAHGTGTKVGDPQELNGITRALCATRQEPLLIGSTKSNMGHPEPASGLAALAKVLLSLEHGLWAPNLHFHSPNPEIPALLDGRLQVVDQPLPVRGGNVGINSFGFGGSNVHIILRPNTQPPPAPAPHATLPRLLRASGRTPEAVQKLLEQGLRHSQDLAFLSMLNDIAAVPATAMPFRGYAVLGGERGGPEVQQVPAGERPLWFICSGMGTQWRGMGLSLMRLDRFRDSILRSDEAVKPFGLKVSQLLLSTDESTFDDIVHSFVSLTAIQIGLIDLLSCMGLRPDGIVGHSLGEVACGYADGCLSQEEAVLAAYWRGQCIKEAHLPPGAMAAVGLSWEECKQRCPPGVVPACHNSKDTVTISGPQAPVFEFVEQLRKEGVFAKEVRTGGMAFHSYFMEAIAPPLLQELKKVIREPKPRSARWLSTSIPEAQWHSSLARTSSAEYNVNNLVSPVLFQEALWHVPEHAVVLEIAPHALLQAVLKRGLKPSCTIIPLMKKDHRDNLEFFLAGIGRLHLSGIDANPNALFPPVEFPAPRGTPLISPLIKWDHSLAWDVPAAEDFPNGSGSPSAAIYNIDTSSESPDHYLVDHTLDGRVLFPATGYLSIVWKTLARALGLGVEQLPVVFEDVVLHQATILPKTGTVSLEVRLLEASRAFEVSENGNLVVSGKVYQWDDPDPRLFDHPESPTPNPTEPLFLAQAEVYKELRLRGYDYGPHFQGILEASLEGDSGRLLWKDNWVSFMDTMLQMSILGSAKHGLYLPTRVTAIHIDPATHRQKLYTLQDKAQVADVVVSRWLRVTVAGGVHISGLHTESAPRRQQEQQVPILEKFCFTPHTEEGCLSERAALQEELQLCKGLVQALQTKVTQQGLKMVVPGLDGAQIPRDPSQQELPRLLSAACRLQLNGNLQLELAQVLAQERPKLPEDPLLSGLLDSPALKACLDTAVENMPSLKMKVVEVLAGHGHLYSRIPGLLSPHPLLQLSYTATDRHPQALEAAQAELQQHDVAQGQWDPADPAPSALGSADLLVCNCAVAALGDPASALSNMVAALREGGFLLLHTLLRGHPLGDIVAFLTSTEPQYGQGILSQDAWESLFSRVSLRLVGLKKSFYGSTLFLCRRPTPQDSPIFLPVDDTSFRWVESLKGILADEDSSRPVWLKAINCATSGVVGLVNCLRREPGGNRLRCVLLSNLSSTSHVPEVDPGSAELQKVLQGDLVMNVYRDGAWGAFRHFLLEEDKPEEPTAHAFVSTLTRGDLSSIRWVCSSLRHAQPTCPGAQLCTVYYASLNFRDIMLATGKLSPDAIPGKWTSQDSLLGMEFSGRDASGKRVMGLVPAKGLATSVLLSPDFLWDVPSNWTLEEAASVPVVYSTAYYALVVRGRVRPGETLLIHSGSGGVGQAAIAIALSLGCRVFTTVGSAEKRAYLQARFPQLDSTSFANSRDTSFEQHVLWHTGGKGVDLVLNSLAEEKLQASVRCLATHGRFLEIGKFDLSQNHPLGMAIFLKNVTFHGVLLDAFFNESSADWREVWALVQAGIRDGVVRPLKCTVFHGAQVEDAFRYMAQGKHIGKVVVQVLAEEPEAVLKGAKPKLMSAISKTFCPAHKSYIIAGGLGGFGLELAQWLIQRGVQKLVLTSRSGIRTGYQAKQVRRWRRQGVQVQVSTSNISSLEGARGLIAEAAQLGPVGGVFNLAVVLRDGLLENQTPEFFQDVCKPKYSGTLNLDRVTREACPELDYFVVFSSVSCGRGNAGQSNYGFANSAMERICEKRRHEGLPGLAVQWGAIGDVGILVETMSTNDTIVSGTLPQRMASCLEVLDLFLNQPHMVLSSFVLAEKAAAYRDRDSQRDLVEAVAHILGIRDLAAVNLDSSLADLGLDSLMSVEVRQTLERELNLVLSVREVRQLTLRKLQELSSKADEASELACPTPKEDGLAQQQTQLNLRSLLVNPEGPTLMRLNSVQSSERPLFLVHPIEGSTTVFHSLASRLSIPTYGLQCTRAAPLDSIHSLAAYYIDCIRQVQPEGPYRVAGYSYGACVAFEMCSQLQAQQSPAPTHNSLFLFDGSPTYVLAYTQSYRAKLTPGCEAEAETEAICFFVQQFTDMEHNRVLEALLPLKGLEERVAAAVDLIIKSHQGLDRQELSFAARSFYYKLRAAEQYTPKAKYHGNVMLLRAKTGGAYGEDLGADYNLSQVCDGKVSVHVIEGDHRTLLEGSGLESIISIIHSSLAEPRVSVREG
# Sequence of Protein Wnt-3a (P27467 whole entry): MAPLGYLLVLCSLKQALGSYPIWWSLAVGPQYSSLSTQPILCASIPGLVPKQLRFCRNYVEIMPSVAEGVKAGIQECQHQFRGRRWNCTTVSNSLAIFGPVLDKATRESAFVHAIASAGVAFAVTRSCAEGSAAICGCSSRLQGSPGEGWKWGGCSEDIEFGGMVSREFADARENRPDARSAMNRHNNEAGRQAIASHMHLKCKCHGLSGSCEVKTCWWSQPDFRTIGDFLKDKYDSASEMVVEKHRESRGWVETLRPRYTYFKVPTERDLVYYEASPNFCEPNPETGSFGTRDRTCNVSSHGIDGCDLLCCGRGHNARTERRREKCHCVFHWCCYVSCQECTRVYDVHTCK
# Sequence of Hepatocyte nuclear factor 4-alpha (P41235 whole entry, the tested form may be a part): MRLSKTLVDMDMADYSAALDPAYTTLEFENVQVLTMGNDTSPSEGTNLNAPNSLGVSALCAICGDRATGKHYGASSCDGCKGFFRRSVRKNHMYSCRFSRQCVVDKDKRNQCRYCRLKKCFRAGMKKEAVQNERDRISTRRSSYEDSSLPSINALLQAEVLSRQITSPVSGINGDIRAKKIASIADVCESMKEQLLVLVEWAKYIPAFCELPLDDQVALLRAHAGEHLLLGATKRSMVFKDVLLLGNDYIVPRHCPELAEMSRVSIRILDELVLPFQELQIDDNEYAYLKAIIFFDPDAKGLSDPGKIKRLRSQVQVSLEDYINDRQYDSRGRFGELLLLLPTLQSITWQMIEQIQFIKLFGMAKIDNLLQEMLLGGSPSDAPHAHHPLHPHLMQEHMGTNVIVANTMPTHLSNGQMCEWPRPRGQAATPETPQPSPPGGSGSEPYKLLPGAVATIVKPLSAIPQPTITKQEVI
structure (smiles),measurement,setting,value
CCCCn1c(CN2CCN(c3ccccc3)CC2)nc2c1c(=O)n(C)c(=O)n2C,IC50,Fatty acid synthase [1],15.3 µM (active)
same,EC50,[2],38.9 µM (active)
same,AC50,[3],2.05 µM (active)
same,AC50,[4],6.34 µM (active)
same,IC50,[5],4.27 µM (active)
same,IC50,Fatty acid synthase [6],21.5 µM (inactive)
same,IC50,[7],1.96 µM (active)
same,EC50,[8],21.9 µM (active)
same,AC50,[9],1.27 µM (active)
O=C(N[C@@H]1C/C=C\C[C@H](CC(=O)N(CCO)Cc2ccccc2)C(=O)N[C@@H](Cc2c[nH]c3ccccc23)COC1=O)OCC1c2ccccc2-c2ccccc21,IC50,Protein Wnt-3a,8.54 µM (active)
Oc1c(C(c2ccc(Cl)cc2)N2CCCC2)ccc2cccnc12 (stereo not drawn),AC50,[10],1.71 µM (active)
O=C(O)c1coc(-c2cc3ccccc3s2)n1,EC50,[11],> 100 µM (inactive)
CC1(C)C2CCC(CN=C(N)CSS(=O)(=O)O)C1C2 (stereo not drawn),IC50,[12],4.45 µM (active)
same,IC50,[13],65.3 µM (active)
CCN(CC)CCNc1ccc(CO)c2sc3ccccc3c(=O)c12 [HYCANTHONE],AC50,[14],9.33 µM (active)
same,IC50,[15],5.68 µM (inactive)
same,IC50,[16],> 10 µM (inactive)
same,AC50,[17],6.95 µM (active)
